From paper PMC7461649 (Journal of medicinal chemistry, 2020)
Like-named read-outs stand apart in the source and are kept apart here.

How the values were obtained:
TnmH [1] = target: T1, TnmH (Streptomyces sp. CB03234, UniProt A0A125SA05); experiment: biochemical
TnmH [2] = target: T1, TnmH; conditions: saturating SAM (1 mM)
[3] = target: TnmH (Streptomyces sp. CB03234); experiment: SEC

Work on `C[S+](CC[C@H](N)C(=O)O)C[C@H]1O[C@@H](n2cnc3c(N)ncnc32)[C@H](O)[C@@H]1O` (stereo partly shown) [SAM] yielded a Km (TnmH [1]) of 62 ± 4.8 µM.

TNM F [compound 10] was tested, and the Km (TnmH [2]; 10 varied 7.8 to 500 μM, C-7 hydroxyl methylation to 12) was 11.7 ± 1.2 µM.

For TnmH (enzyme), the stoichiometry N [3] was 2.

In the case of `COC(=O)C(O)C(C)(O)[C@@]12OC13c1cc(O)c4c(c1N[C@H]2C#C/C=C\C#C[C@H]3O)C(=O)c1c(ccc(O)c1O)C4=O` (stereo partly shown) [compound 11, TNM C], the Km (TnmH [2]; 11 varied 7.8 to 500 μM, C-7 hydroxyl methylation to 13) is reported as 31.1 ± 4.1 µM.
